This note sets out measurements from patent publication US20050256132A1, “Use of ER selective NF-kB inhibitors for the treatment of sepsis” (priority 2003, published 2005).

Data set [1] concerns ER/IL-6. Briefly: Endothelial Cell ER/IL-6 Assay, IL-6 promoter luciferase (Table 2). The class given is cell-based, human. The conditions noted are these: Homo sapiens, HAECT1, ERα infected HAECT-1 cells, IL-1β; for Emax: read-out: IL6 luc % Efficacy; for IC50: read-out: IL6 luc IC50. Summed up: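 One lysate gave both read-outs: luciferase for ER/IL-6 and A340 rate after CK reagent for CK, with four-parameter logistic IC50/EC50. Cells were HAECT-1 aortic endothelial cells carrying adenoviral human ERα (or none), dosed […] at 34 °C from 2× stocks containing 2 ng/ml IL-1β and IL-6(1250 bp)-Luc adenovirus.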

Data set [2] has as its system CK. The experiment in a line: Creatine kinase assay in ERα infected HAECT-1 cells (Table 2). It counts as cell-based, human. The conditions noted are these: Homo sapiens; for Emax: HAECT1, read-out: CK % Efficacy; for EC50: HAECT1. As for the experimental part:
T-175 flasks of 100% confluent HAECT-1 cells (immortalized human aortic endothelial cells) were washed with 8 ml of HBSS (HEPES buffered saline solution) and infected for fours hours with 6 ml of a 1:10 dilution of Ad5-wt-hERα virus (an adenovirus transfection vector that mediates CMV promoter driven expression of human ERα) in phenol red free Endothelial Cell Basal medium (Clonetics, San Diego, Calif., Catalog # CC-3129) containing 0.25% bovine serum albumin (EDM-BSA). After four hours, cells were washed with EDM-BSA and incubated overnight in the same medium. Following overnight incubation, cells were washed with EDM-BSA and infected for 2 hours with 6 ml of a 1:10 dilution of Ad5-3x(NFκB).Luc virus (Adenovirus luciferase expression vector driven by three repeats of the MHC NFκb sites 5′ to the thymidine kinase promoter) in EDM-BSA. After two hours, cells were washed and incubated at 34° C. for one hour. Cells were then washed, trypsinized, counted, and resuspended in 95% FBS/5% dimethylsulfoxide at a concentration of […], frozen as 1 or 5 ml aliquots in cryo-vials and stored at −150° C. Control (no ER infection) cells were processed as above without Ad5-wt-hERα virus infection.
ERα infected HAECT-1 cells or control cells were thawed, diluted 42× in warm EBM-BSA, plated into 96-well plates at 0.1 ml/well and incubated for 4 hours at 34° C. Test compounds were added to the cells at 2× stocks in EBM-BSA containing 2 ng/ml IL-1β Ad6-IL-6(1250 bp).Luc virus and plates were returned to the incubator (34° C.). After […], cells were lysed with 50 μl of Promega Cell Culture Lysis reagenet for about 5 minutes at room temperature on a shaker. After lysing, 15 μl of lysate is transferred to luminometer plates for luciferase determination. Luciferase activity is evaluated using a Perkin Elmer Victor2 1420 multilabel counter. Creatine kinase was determined from the rate of increase in A340 following addition of 100 μl of CK assay reagent (Sigma catalog no. 47-10) to the remainder of the cell lysate.
For IC50 and EC50 calculations, mean IL-6, luciferase or CK values versus log10 of the compound concentration were fitted to a four parameter logistic equation. The IC50/EC50 value, ‘Hill slope,’ upper and lower limits of the curve were iteratively estimated.

Take `COC(=O)[C@@](C#N)(CCN(C)C)[C@H](c1ccccc1OC)c1cccc2ccccc12` (relative stereo) [Example 157, Methyl (2S*)-2-cyano-4-(dimethylamino)-2-[(S*)-(2-methoxyphenyl)(1-naphthyl)methyl]butanoate]: the melting point (commonly the temperature, or range, at which the solid turns liquid) is 142 to 144.5 °C. In addition, in data set [1], the Emax is 110% and the IC50 – broadly, the concentration that gives 50% inhibition – stood at 23 nM. Moreover, in data set [2], the Emax is -100%.

For the molecule `COC[C@](C#N)(C(=O)NCC(C)(C)C)[C@H](c1ccccc1OC)c1cccc2ccccc12` (relative stereo) [Example 181, (2S*,3S*)-2-cyano-N-(2,2-dimethylpropyl)-2-(methoxymethyl)-3-(2-methoxyphenyl)-3-(1-naphthyl)propanamide], the melting point was in the range of 184.9 to 185.5 °C. For the same molecule, in data set [1], the Emax is 104% and the IC50 was found to be 389 nM. For the same molecule, in data set [2], the Emax stood at 2%.

In the case of `COc1ccccc1[C@H](c1cccc2ccccc12)[C@@](C)(C#N)C(=O)N1CCN(c2cccc(Br)c2)CC1` [Example 131, (2S)-3-[4-(3-bromophenyl)piperazin-1-yl]-2-[(S)-(2-methoxyphenyl)(1-naphthyl)methyl]-2-methyl-3-oxopropanenitrile], the melting point fell in the range of 180 to 182 °C. Further, in data set [1], the Emax was determined as 119% and the IC50 turned out to be 15 nM. Moreover, in data set [2], the EC50 (as a rule, the midpoint of the concentration-response curve) is 212 nM and the Emax turned out to be 48%.

`COc1ccccc1[C@H](c1cccc2ccccc12)[C@@](C)(C#N)C(=O)N1CCC(N2C(=O)Cc3ccccc32)CC1` [Example 132, (2S,3S)-3-(2-methoxyphenyl)-2-methyl-3-(1-naphthyl)-2-{[4-(2-oxo-2,3-dihydro-1H-indol-1-yl)piperidin-1-yl]carbonyl}propanenitrile]: the melting point was 227 to 230 °C. Moreover, in data set [1], the Emax stood at 92% and the half-inhibitory concentration (IC50) is 122 nM. For the same molecule, in data set [2], the EC50 worked out at 298 nM and the Emax was 57%.

For the molecule `COc1ccccc1C1CCN(C(=O)[C@](C)(C#N)[C@H](c2ccccc2OC)c2cccc3ccccc23)CC1` [Example 138, (2S,3S)-3-(2-methoxyphenyl)-2-{[4-(2-methoxyphenyl)piperidin-1-yl]carbonyl}-2-methyl-3-(1-naphthyl)propanenitrile], the melting point was in the range of 135 to 140 °C. Moreover, in data set [1], the Emax was determined as 131% and the IC50 amounted to 15 nM. In data set [2], the EC50 was 34 nM and the Emax is 49%.

`COC[C@@](C#N)(C(=O)OC)[C@@H](c1ccccc1OC)c1cccc2ccccc12` [Example 151, Methyl (2R,3R)-2-cyano-2-(methoxymethyl)-3-(2-methoxyphenyl)-3-(1-naphthyl)propanoate]: the melting point lay within 175.6 to 177.6 °C. In data set [1], the Emax was 141% and the IC50 worked out at 5.5 nM. Also, in data set [2], a half-maximal effect (EC50) was put at 13.5 nM and the Emax was found to be 30%.

As for `COC(=O)[C@](C#N)(Cc1cccnc1)[C@@H](c1ccccc1OC)c1cccc2ccccc12` [Example 155, Methyl (2R,3R)-2-cyano-3-(2-methoxyphenyl)-3-(1-naphthyl)-2-(pyridin-3-ylmethyl)propanoate], the melting point was 193 °C (dec.). In addition, in data set [1], the Emax was 105% and the IC50 came to 2 nM. Moreover, in data set [2], the EC50 was found to be 6 nM and the Emax is 33%.

On to `COC(=O)C(C)(C#N)C(c1ccccc1OC)c1ccnc2ccccc12` (stereo not drawn) [Example 160, Methyl 2-cyano-3-(2-methoxyphenyl)-2-methyl-3-(quinolin-4-yl)propanoate], for which the melting point lay within 192 to 193.9 °C. Moreover, in data set [1], the Emax worked out at 82% and the IC50 was found to be 1260 nM. In addition, the Emax in data set [2] is -10%.

`COc1ccccc1C(c1ccnc2ccccc12)C(C#N)(Cc1cccnc1)C(=O)OC(C)(C)C` (stereo not drawn) [Example 166, tert-Butyl 2-cyano-3-(2-methoxyphenyl)-2-(pyridin-3-ylmethyl)-3-quinolin-4-ylpropanoate] returned a melting point of 225 to 228 °C. Besides, in data set [1], the Emax was 77% and the concentration for half-maximal inhibition (IC50) came to 353 nM. For the same molecule, the Emax in data set [2] was -13%.

Consider `COc1ccccc1[C@H](c1cccc2ccccc12)[C@@](C)(C#N)C(=O)N1CCC(n2c(=O)[nH]c3ccccc32)CC1` [Example 183, (2S,3S)-3-(2-methoxyphenyl)-2-methyl-3-(1-naphthyl)-2-{[4-(2-oxo-2,3-dihydro-1H-benzimidazol-1-yl)piperidin-1-yl]carbonyl}propanenitrile], for which the melting point was 197 to 200 °C. In data set [1], the Emax is 196% and the IC50 is 361 nM. In addition, in data set [2], the EC50 worked out at 481 nM and the Emax turned out to be 63%.

`COc1ccccc1[C@H](c1cccc2ccccc12)[C@@](C)(C#N)C(=O)N1CCC(O)(c2ccc(Cl)cc2)CC1` [Example 186, (2S)-3-[4-(4-chlorophenyl)-4-hydroxypiperidin-1-yl]-2-[(S)-(2-methoxyphenyl)(1-naphthyl)methyl]-2-methyl-3-oxopropanenitrile]: the melting point is 202 to 204 °C. In addition, in data set [1], the Emax amounted to 60% and the IC50 is 2460 nM. The Emax in data set [2] is 11%.

Molecule `COc1ccccc1[C@H](c1cccc2ccccc12)[C@@](C)(C#N)C(=O)N1CCC(c2c[nH]c3ccccc23)CC1` [Example 187, (2S)-3-[4-(1H-indol-3-yl)piperidin-1-yl]-2-[(S)-(2-methoxyphenyl)(1-naphthyl)methyl]-2-methyl-3-oxopropanenitrile] returned a melting point of 267 to 268 °C. Also, in data set [1], the Emax amounted to 134% and the IC50 was found to be 21 nM. For the same molecule, in data set [2], the EC50 was 50 nM and the Emax was 48%.

With `COc1ccccc1[C@H](c1cccc2ccccc12)[C@@](C)(C#N)C(=O)N1CCN(c2ncccn2)CC1` [Example 192, (2S,3S)-3-(2-methoxyphenyl)-2-methyl-3-(1-naphthyl)-2-[(4-pyrimidin-2-ylpiperazin-1-yl)carbonyl]propanenitrile], the melting point was 153 to 154 °C. Also, in data set [1], the Emax amounted to 176% and the IC50 stood at 44 nM. The molecule further yielded an EC50 in data set [2] of 415 nM.

With `COc1ccccc1[C@H](c1cccc2ccccc12)[C@@](C)(C#N)C(=O)N1CCC(N2CCOCC2)CC1` [Example 203, (2S,3S)-3-(2-methoxyphenyl)-2-methyl-2-[(4-morpholin-4-ylpiperidin-1-yl)carbonyl]-3-(1-naphthyl)propanenitrile], the melting point fell in the range of 209 to 210 °C. Besides, in data set [1], the Emax amounted to 28% and the IC50 was 9.93 nM. Besides, the Emax in data set [2] is -26%.

`COCC(C#N)(C(=O)N1CCN(CCCN(C)C)CC1)C(c1ccccc1OC)c1cccc2ccccc12` (stereo not drawn) [Example 204, 3-{4-[3-(dimethylamino)propyl]piperazin-1-yl}-2-(methoxymethyl)-2-[(2-methoxyphenyl)(1-naphthyl)methyl]-3-oxopropanenitrile] had a melting point of 174 to 175 °C. In data set [1], the Emax was determined as 23% and the IC50 is 117 nM. Further, the Emax in data set [2] is -34%.

Molecule `COCCN1CCN(C(=O)C(C#N)(COCc2ccccc2)C(c2ccccc2OC)c2cccc3ccccc23)CC1` (stereo not drawn) [Example 207, 2-[(benzyloxy)methyl]-3-[4-(2-methoxyethyl)piperazin-1-yl]-2-[(2-methoxyphenyl)(1-naphthyl)methyl]-3-oxopropanenitrile] returned a melting point of 140 to 141 °C. Moreover, in data set [1], the Emax came to 63% and the IC50 was found to be 4000 nM. Further, the Emax in data set [2] is -16%.

As to `COc1ccccc1[C@H](c1cccc2ccccc12)[C@@](C)(C#N)C(=O)N1CCN(c2cnccn2)CC1` [Example 214, (2S,3S)-3-(2-methoxyphenyl)-2-methyl-3-(1-naphthyl)-2-[(4-pyrazin-2-ylpiperazin-1-yl)carbonyl]propanenitrile], the melting point was in the range of 143 to 144 °C. In data set [1], the Emax is 136% and the IC50 stood at 276 nM. Moreover, in data set [2], the Emax is 12%.
